# Assay results published in patent US5527781A, “4-O-(aminoglycosyl)- or 4,6-di-O-(aminoglycosyl)-2,5-dideoxy-5,5-difluorostreptamine derivatives” (Zaidan Hojin Biseibutsu Kagaku Kenkyu Kai, priority 1990, dated 1996).
# Like-named read-outs stand apart in the source and are kept apart here.
# How the values were obtained:
# [1] = test system: Mycobacterium 607; test: MIC, standard serial dilution method; format: cell-based; details: Mueller-Hinton agar, 37° C
# [2] = test system: Escherichia coli K-12 R5; test: microbe, parasite or virus in culture; format: cell-based; details: K12R5
# [3] = test system: Bacillus subtilis PCI219; test: MIC, standard serial dilution method; format: cell-based; details: Mueller-Hinton agar, 37° C
# [4] = test system: Proteus rettgeri GN 311; test: MIC, standard serial dilution method; format: cell-based; details: Providencia rettgeri, GN311; Proteus rettgeri GN 311; Mueller-Hinton agar, 37° C; read-out: MIC
# [5] = test system: Pseudomonas aeruginosa GN 315; test: MIC, standard serial dilution method; format: cell-based; details: GN315; Pseudomonas aeruginosa GN 315; resistance mechanism AAC(6'); Mueller-Hinton agar, 37° C; read-out: MIC
# [6] = test system: Escherichia coli K-12 ML 1629; test: microbe, parasite or virus in culture; format: cell-based; details: K12ML1629
# [7] = test system: Providencia sp. Pv 16; test: MIC, standard serial dilution method; format: cell-based; details: SP.PV16, resistance mechanism AAC(2'), Mueller-Hinton agar, 37° C
# [8] = test system: Staphylococcus aureus Ap01; test: MIC, standard serial dilution method; format: cell-based; details: resistance mechanism ANT(4'), Mueller-Hinton agar, 37° C
# [9] = test system: Klebsiella pneumoniae 22#3038; test: MIC, standard serial dilution method; format: cell-based; details: resistance mechanism APH(3')-II, ANT(2"), Mueller-Hinton agar, 37° C
# [10] = test system: Corynebacterium bovis 1810; test: MIC, standard serial dilution method; format: cell-based; details: Mueller-Hinton agar, 37° C
# [11] = test system: Serratia marcescens; test: MIC, standard serial dilution method; format: cell-based; details: Mueller-Hinton agar, 37° C
# [12] = test system: Escherichia coli K-12; test: MIC, standard serial dilution method; format: cell-based; details: K12
# [13] = in vivo; details: mouse, iv, pH 7
# From the text: Further, in order to estimate acute toxicity of the compound of the general formula (I) according to this invention, some examples of the compounds of this invention were independently dissolved in water to prepare aqueous solutions (as adjusted to pH 7 by addition of hydrochloric acid). […] The tested compounds of this invention are expressed by the same abbreviations as in Table 1. […] The comparative compounds as tested are also expressed by the same abbreviations as in Table 1.
# [14] = test system: Escherichia coli JR225; test: microbe, parasite or virus in culture; format: cell-based; details: resistance mechanism AAC(3), Mueller-Hinton agar, 37° C
# [15] = test system: Pseudomonas aeruginosa A3; test: MIC, standard serial dilution method; format: cell-based; details: Mueller-Hinton agar, 37° C
# [16] = test system: Escherichia coli JR66/W677; test: microbe, parasite or virus in culture; format: cell-based; details: resistance mechanism APH(3')-II, ANT(2"), Mueller-Hinton agar, 37° C
# [17] = test system: Staphylococcus aureus 209P; test: MIC, standard serial dilution method; format: cell-based; details: Mueller-Hinton agar, 37° C
# [18] = test system: Escherichia coli K-12 LA 290 R55; test: microbe, parasite or virus in culture; format: cell-based; details: K12LA290R55; Escherichia coli K-12 LA 290 R55; resistance mechanism ANT(2"); Mueller-Hinton agar, 37° C
# [19] = Escherichia coli K-12 R5, resistance mechanism AAC(6'), Mueller-Hinton agar, 37° C
# [20] = Escherichia coli K-12 ML 1629, resistance mechanism APH(3')-I, Mueller-Hinton agar, 37° C, read-out: MIC
# [21] = Escherichia coli K-12, Mueller-Hinton agar, 37° C, read-out: MIC
Structure (SMILES),MIC [1],"MIC [2, 19]",MIC [3],MIC [4],MIC [5],"MIC [6, 20]",MIC [7],MIC [8],MIC [9],MIC [10],MIC [11],"MIC [12, 21]",LD50 [13],MIC [14],MIC [15],MIC [16],MIC [17],MIC [18],MIC ([6]; Escherichia coli),other results
"CN[C@@H]1[C@@H](O)[C@@H](O[C@@H]2[C@@H](O)[C@H](O[C@H]3O[C@H]([C@@H](C)N)CC[C@H]3N)[C@@H](N)C[C@H]2N)OC[C@]1(C)O [Genta-C2, gentamicin C2, reference compound]",1.56 µg/mL,1.56 µg/mL,< 0.2 µg/mL,0.2 µg/mL,3.12 µg/mL,0.39 µg/mL,6.25 µg/mL,0.78 µg/mL,12.5 µg/mL,0.39 µg/mL,0.78 µg/mL,< 0.2 µg/mL,~90 mg/kg,6.25 µg/mL,0.39 µg/mL,25 µg/mL,< 0.2 µg/mL,12.5 µg/mL,–,–
"CCN[C@@H]1C[C@H](N)[C@@H](O[C@H]2OC(CN)=CC[C@H]2N)C(F)(F)[C@H]1O[C@H]1OC[C@](C)(O)[C@H](NC)[C@H]1O [5FF-Netilmicin, 5-deoxy-5,5-difluoronetilmicin]",1.56 µg/mL,50 µg/mL,0.39 µg/mL,1.56 µg/mL,> 100 µg/mL,–,12.5 µg/mL,12.5 µg/mL,1.56 µg/mL,1.56 µg/mL,6.25 µg/mL,< 0.2 µg/mL,47 mg/kg,1.56 µg/mL,1.56 µg/mL,0.78 µg/mL,3.12 µg/mL,0.39 µg/mL,0.78 µg/mL,–
"NC[C@H]1O[C@H](O[C@H]2[C@H](O)[C@@H](O[C@H]3O[C@H](CO)[C@@H](O)[C@H](N)[C@H]3O)[C@H](N)C[C@@H]2N)[C@H](O)[C@@H](O)[C@@H]1O [KMA, kanamycin A, reference compound]",6.25 µg/mL,> 100 µg/mL,0.78 µg/mL,0.78 µg/mL,> 100 µg/mL,> 100 µg/mL,3.12 µg/mL,25 µg/mL,> 100 µg/mL,12.5 µg/mL,12.5 µg/mL,–,–,3.12 µg/mL,6.25 µg/mL,> 100 µg/mL,1.56 µg/mL,50 µg/mL,–,MIC ([12]; Escherichia coli): 0.78 µg/mL
"CN[C@@H]1[C@@H](O)[C@@H](O[C@H]2[C@H](N)C[C@H](N)[C@@H](O[C@H]3O[C@H]([C@@H](C)N)CC[C@H]3N)C2(F)F)OC[C@]1(C)O [Compound 5FF-Genta-C2, 5-deoxy-5,5-difluorogentamicin C2]",0.78 µg/mL,1.56 µg/mL,0.2 µg/mL,0.78 µg/mL,25 µg/mL,–,6.25 µg/mL,6.25 µg/mL,1.56 µg/mL,0.78 µg/mL,0.78 µg/mL,–,~230 mg/kg,6.25 µg/mL,1.56 µg/mL,3.12 µg/mL,0.78 µg/mL,3.12 µg/mL,0.78 µg/mL,MIC ([12]; Escherichia coli): 0.78 µg/mL
"NCC[C@H](O)C(=O)N[C@@H]1C[C@H](N)[C@@H](O[C@H]2O[C@H](CN)[C@@H](O)[C@H](O)[C@H]2O)C(F)(F)[C@H]1O[C@H]1O[C@H](CO)[C@@H](O)[C@H](N)[C@H]1O [Compound 5FF-amikacin, 1-N-[(S)-4-amino-2-hydroxybutyryl]-5-deoxy-5,5-difluorokanamycin A]",3.12 µg/mL,25 µg/mL,1.56 µg/mL,1.56 µg/mL,> 100 µg/mL,3.12 µg/mL,3.12 µg/mL,> 100 µg/mL,6.25 µg/mL,3.12 µg/mL,6.25 µg/mL,1.56 µg/mL,> 300 mg/kg,0.39 µg/mL,3.12 µg/mL,3.12 µg/mL,3.12 µg/mL,3.12 µg/mL,–,–
"NC[C@@H]1CC[C@@H](N)[C@@H](O[C@@H]2[C@@H](N)C[C@@H](N)[C@H](O[C@H]3O[C@H](CO)[C@@H](O)[C@H](N)[C@H]3O)C2(F)F)O1 [Compound 5FF-DKB, 5,3',4'-trideoxy-5,5-difluorokanamycin B]",1.56 µg/mL,100 µg/mL,0.39 µg/mL,0.39 µg/mL,> 100 µg/mL,–,12.5 µg/mL,3.12 µg/mL,1.56 µg/mL,1.56 µg/mL,12.5 µg/mL,0.39 µg/mL,250 mg/kg,3.12 µg/mL,0.39 µg/mL,1.56 µg/mL,0.78 µg/mL,1.56 µg/mL,0.78 µg/mL,–
"CN[C@@H]1[C@@H](O)[C@@H](O[C@H]2[C@H](NC(=O)[C@@H](O)CCN)C[C@H](N)[C@@H](O[C@H]3O[C@H]([C@@H](C)NC)CC[C@H]3N)C2(F)F)OC[C@]1(C)O [5FF-Genta-C1-AHB, 1-N-[(S)-4-amino-2-hydroxybutyryl]-5-deoxy-5,5-difluorogentamicin C1]",3.12 µg/mL,–,1.56 µg/mL,1.56 µg/mL,100 µg/mL,1.56 µg/mL,6.25 µg/mL,25 µg/mL,1.56 µg/mL,0.78 µg/mL,3.12 µg/mL,< 0.2 µg/mL,–,< 0.2 µg/mL,6.25 µg/mL,3.12 µg/mL,1.56 µg/mL,0.39 µg/mL,–,MIC ([2]; Escherichia coli): 0.78 µg/mL
"CN[C@@H]1[C@@H](O)[C@@H](O[C@H]2[C@H](NC(=O)[C@@H](O)CCN)C[C@H](N)[C@@H](O[C@H]3O[C@H]([C@@H](C)N)CC[C@H]3N)C2(F)F)OC[C@]1(C)O [5FF-Genta-C2-AHB, 1-N-[(S)-4-amino-2-hydroxybutyryl]-5-deoxy-5,5-difluorogentamicin C2]",3.12 µg/mL,3.12 µg/mL,0.2 µg/mL,0.78 µg/mL,100 µg/mL,0.39 µg/mL,6.25 µg/mL,12.5 µg/mL,1.56 µg/mL,0.2 µg/mL,3.12 µg/mL,< 0.2 µg/mL,–,< 0.2 µg/mL,3.12 µg/mL,0.78 µg/mL,0.78 µg/mL,0.2 µg/mL,–,–
